Drawing on ChEMBL document CHEMBL1201862, “PubChem BioAssay data set” (2004), this text covers EC50, IC50 and AC50 for nine molecules.

The source made the active and inactive calls. Where only a bound is given, the exact number is not on record here.

The target in assay [1] is Peroxisome proliferator-activated receptor gamma/Nuclear receptor coactivator 2 (Homo sapiens, UniProt P37231). Format: functional.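 Note: agonist potency for raising coactivator recruitment to the receptor.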
In assay [2] the target is Peroxisome proliferator-activated receptor gamma/Nuclear receptor coactivator 1 (Homo sapiens, UniProt P37231). The class given is functional.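 Note: agonist potency as compounds enhance coactivator SRC-1 recruitment to PPARgamma.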
In assay [3] the target is Peroxisome proliferator-activated receptor gamma/Nuclear receptor coactivator 3 (Homo sapiens, UniProt P37231). The class given is functional.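 Note: agonist potency for raising coactivator recruitment to the receptor.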
Assay [4] can be described thus: cytotoxicity in HEK-293T cells, dose response, cytotoxicity control for BCR NF-kB inhibitor project, luminescence, B-cell screen hits (AID 489021).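 Note: HEK-293T cells carrying an NF-kB luciferase reporter; cells exposed to compound for about 14 hours before viability readout.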 Format: functional, cell-based.
Assay [5] relates to Streptococcus sp. 'group A'. Put plainly: growth inhibition of control SK(-) GAS strain, dose response, counter-screen for streptokinase expression inhibitor project, luminescence, kanamycin, BacTiterGlo, confirmation (AID 1900). Format: functional, organism-based.
The target in assay [6] is T1, Neuropeptide Y receptor type 2 (Homo sapiens, UniProt P49146).
T1 sequence (P49146 whole entry): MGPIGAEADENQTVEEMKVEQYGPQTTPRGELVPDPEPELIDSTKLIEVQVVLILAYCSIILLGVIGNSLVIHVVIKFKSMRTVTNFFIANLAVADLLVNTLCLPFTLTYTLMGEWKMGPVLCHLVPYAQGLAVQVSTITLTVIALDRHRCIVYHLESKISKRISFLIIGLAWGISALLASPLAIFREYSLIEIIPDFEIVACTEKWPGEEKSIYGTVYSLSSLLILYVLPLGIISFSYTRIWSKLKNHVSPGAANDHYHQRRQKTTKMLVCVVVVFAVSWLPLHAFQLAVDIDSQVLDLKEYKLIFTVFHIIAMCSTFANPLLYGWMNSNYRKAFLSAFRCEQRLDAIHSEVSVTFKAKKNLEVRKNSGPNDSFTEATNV
Nature of the assay: NPY-Y2 antagonist potency, selectivity check, dose response, counter-screen for NPY-Y1 antagonist project, cell-based (AID 1278). Format: functional.

For assay [7], the target named is T2, Streptokinase A (Streptococcus pyogenes serotype M1, UniProt P10520).
T2 sequence (P10520 whole entry): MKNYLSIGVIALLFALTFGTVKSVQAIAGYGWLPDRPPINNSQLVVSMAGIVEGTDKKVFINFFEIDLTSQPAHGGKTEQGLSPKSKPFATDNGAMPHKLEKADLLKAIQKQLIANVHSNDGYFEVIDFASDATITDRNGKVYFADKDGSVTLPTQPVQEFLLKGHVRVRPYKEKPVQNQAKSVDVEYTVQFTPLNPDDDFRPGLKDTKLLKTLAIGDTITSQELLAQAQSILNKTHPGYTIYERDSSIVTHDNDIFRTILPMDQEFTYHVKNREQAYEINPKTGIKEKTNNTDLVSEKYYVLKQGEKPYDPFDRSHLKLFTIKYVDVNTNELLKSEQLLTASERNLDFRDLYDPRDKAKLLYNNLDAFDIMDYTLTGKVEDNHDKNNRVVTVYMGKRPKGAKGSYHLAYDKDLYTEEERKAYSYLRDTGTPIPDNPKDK
Put plainly: S. pyogenes streptokinase expression inhibitors, potency, dose response, plasminogen activation absorbance, OD405 (AID 1914).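 Note: secreted streptokinase activity via plasminogen activation per viability signal from cell pellet.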 Format: functional, Streptococcus pyogenes M1 GAS.

The nature of assay [8]: cytotoxicity in HPDE-C7 cells, cell-based, fluorescence, HTS (AID 430). The class given is functional. As to conditions: Homo sapiens.
Assay [9] concerns the target T3, Neuropeptide Y receptor type 1 (Homo sapiens, UniProt P25929).
T3 sequence (P25929 whole entry): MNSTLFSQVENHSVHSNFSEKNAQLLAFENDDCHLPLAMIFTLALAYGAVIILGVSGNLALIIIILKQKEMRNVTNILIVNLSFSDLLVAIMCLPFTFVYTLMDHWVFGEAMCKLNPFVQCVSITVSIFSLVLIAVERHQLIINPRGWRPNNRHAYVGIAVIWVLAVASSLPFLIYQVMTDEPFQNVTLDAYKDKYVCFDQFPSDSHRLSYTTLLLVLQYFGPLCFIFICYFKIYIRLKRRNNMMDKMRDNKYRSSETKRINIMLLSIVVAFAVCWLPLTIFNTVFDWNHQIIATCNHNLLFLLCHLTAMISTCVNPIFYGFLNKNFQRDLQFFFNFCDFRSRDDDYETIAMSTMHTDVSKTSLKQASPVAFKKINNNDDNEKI
Put plainly: NPY-Y1 receptor antagonist potency, dose response, cell-based (AID 1277). The class given is functional.

A short description of assay [10]: cytotoxicity in KRAS-transformed pancreatic duct cells, primary screen, cell-based, fluorescence, HTS (AID 431).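 Note: cell line used: HPDE-C7K.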 Format: functional. As to conditions: Homo sapiens.
Assay [11] relates to Streptococcus. Put plainly: Group A Streptococcus viability loss, dose response, counter-screen for streptokinase expression inhibitor project, luminescence, BacTiterGlo (AID 1915).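 Note: potency for reduction of bacterial viability or growth.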 The class given is functional, organism-based. A general note: A counterscreen serves to expose hits that act by an unwanted route or on another target.
In assay [12] the target is T4, Coagulation factor XII (Homo sapiens, UniProt P00748).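 Note: activated factor XIIa alpha cleaving a fluorogenic AMC peptide substrate; inhibitor potency from loss of enzyme activity.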
T4 sequence (P00748 whole entry): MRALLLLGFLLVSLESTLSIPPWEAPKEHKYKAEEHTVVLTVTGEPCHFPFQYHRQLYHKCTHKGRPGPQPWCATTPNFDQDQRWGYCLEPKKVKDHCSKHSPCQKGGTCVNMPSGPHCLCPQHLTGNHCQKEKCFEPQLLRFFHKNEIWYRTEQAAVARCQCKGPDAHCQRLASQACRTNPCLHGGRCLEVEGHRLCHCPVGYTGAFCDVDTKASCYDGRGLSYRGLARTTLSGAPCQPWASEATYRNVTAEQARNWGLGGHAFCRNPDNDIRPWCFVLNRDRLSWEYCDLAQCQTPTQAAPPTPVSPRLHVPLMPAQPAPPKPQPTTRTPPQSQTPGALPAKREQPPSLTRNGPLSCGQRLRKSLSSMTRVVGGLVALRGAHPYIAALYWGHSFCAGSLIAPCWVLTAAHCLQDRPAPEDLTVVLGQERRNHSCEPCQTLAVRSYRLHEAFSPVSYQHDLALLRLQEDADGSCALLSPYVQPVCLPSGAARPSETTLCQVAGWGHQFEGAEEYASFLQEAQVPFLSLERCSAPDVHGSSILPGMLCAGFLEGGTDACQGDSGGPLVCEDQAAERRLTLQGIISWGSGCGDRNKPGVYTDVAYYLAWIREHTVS
Format: functional.

The target of assay [13] is Luciferin 4-monooxygenase (Photinus pyralis, UniProt P08659). Put plainly: Counter Screen for Luciferase-based Assay Positives. [Related pubchem assays: 620, 618, 411 ].
Assay [14] has as its system HT-1080. Put plainly: cytotoxicity in HT1080 fibrosarcoma cells, cell-based, fluorescence readout (AID 620). The class given is functional. Particulars: Homo sapiens.
Assay [15] deals with HEK293. Put plainly: inhibitors of LMP1-driven NF-kB reporter, dose response, cell-based, HEK293, luciferase, cherry-pick (AID 588343). The class given is functional. As to conditions: Homo sapiens.
The nature of assay [16]: growth suppression of PTEN-null colon cells, dose response, cell-based, HCT116 PTEN knockout (AID 1047).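 Note: HCT116 colon tumor cells with PTEN knocked out; cells exposed to compound for 60 hours before readout; potency for loss of cell viability measured by luminescence.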 Format: functional.
The nature of assay [17]: growth suppression of beta-catenin-knockout colon cells, dose response, cell-based, HCT116, human colon tumor (AID 1045).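 Note: HCT116 colon tumor cells with beta catenin knocked out; cells exposed to compound for 60 hours.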 Format: functional.
Assay [18] is described as follows: Luminescence Cell-Based Dose Retest to Confirm Inhibitors of Cancer Stem Cells. [Related pubchem assays (depositor defined):AID2717, AID2721]. The class given is functional. As to conditions: Homo sapiens.
Assay [19] is described as follows: cells. Format: functional.
Assay [20] concerns the target T5, Replicative DNA helicase DnaB (Mycobacterium tuberculosis, UniProt P9WMR3).
T5 sequence (P9WMR3 whole entry): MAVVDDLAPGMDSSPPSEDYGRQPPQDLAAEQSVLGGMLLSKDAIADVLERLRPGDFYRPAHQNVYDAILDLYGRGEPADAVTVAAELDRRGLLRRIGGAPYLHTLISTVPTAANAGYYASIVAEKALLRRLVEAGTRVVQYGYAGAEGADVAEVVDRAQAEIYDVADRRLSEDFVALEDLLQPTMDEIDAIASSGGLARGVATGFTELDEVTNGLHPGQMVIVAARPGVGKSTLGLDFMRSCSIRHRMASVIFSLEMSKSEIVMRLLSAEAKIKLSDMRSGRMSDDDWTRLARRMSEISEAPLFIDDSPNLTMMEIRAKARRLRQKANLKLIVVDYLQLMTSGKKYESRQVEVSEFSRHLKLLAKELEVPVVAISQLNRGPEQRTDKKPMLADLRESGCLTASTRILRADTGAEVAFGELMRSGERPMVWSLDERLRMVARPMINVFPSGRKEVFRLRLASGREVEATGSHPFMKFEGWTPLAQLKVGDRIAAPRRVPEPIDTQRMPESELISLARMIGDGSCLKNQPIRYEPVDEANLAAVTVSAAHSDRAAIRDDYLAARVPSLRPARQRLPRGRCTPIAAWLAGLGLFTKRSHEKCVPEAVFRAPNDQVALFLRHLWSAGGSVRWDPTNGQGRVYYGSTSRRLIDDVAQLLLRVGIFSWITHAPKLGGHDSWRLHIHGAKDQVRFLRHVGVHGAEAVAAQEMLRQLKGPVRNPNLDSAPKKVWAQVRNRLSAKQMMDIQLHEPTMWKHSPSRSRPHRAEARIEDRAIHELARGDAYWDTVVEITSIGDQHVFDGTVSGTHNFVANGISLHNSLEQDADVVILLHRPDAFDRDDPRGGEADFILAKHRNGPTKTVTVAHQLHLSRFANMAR
Nature of the assay: DnaB intein splicing inhibitors, dose response, biochemical, cell-free fluorescence (AID 449749). The class given is functional.

For assay [21], the target named is T6, Protein RecA (Mycobacterium tuberculosis, UniProt P9WHJ3).
T6 sequence (P9WHJ3 whole entry): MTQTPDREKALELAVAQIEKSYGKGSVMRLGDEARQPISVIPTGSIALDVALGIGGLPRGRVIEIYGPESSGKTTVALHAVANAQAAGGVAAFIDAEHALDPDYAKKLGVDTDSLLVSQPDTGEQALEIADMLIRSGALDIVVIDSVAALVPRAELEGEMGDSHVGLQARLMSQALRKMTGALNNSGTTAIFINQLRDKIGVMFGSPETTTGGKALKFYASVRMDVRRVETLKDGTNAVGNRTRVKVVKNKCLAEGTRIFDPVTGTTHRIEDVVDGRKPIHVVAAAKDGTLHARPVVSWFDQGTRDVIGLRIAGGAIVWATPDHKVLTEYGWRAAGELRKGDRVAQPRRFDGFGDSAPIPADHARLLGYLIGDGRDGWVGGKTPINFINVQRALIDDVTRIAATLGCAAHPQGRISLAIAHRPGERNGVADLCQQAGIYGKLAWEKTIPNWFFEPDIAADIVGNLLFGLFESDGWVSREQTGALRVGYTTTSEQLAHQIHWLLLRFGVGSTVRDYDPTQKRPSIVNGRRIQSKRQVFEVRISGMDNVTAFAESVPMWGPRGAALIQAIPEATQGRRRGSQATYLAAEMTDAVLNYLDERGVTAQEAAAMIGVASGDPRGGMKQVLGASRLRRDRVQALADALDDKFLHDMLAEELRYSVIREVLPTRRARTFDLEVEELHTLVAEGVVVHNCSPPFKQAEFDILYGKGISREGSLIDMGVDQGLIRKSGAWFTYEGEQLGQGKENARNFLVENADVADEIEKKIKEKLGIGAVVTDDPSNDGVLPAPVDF
Put plainly: Fluorescence Cell-Free Homogeneous Dose Retest to Identify Inhibitors of RecA-Intein Splicing Activity. [Related pubchem assays (depositor defined):AID2097, AID2223, AID489010, AID492950]. Format: functional.

Chain of Peroxisome proliferator-activated receptor gamma/Nuclear receptor coactivator 2 (P37231 whole entry): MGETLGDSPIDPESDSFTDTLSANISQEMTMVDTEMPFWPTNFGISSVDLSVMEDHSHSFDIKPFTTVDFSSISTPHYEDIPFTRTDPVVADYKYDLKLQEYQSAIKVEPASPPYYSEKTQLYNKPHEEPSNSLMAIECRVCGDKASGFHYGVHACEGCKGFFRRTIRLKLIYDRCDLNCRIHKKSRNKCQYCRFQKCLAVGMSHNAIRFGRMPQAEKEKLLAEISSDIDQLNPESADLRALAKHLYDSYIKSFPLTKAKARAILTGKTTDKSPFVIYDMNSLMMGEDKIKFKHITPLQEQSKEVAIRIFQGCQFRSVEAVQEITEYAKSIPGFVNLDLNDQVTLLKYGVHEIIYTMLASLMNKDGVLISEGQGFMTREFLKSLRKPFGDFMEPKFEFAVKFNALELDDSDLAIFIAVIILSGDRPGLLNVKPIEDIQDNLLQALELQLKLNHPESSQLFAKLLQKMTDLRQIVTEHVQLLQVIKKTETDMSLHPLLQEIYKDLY
Chain of Peroxisome proliferator-activated receptor gamma/Nuclear receptor coactivator 2 (Q15596 whole entry, further chain): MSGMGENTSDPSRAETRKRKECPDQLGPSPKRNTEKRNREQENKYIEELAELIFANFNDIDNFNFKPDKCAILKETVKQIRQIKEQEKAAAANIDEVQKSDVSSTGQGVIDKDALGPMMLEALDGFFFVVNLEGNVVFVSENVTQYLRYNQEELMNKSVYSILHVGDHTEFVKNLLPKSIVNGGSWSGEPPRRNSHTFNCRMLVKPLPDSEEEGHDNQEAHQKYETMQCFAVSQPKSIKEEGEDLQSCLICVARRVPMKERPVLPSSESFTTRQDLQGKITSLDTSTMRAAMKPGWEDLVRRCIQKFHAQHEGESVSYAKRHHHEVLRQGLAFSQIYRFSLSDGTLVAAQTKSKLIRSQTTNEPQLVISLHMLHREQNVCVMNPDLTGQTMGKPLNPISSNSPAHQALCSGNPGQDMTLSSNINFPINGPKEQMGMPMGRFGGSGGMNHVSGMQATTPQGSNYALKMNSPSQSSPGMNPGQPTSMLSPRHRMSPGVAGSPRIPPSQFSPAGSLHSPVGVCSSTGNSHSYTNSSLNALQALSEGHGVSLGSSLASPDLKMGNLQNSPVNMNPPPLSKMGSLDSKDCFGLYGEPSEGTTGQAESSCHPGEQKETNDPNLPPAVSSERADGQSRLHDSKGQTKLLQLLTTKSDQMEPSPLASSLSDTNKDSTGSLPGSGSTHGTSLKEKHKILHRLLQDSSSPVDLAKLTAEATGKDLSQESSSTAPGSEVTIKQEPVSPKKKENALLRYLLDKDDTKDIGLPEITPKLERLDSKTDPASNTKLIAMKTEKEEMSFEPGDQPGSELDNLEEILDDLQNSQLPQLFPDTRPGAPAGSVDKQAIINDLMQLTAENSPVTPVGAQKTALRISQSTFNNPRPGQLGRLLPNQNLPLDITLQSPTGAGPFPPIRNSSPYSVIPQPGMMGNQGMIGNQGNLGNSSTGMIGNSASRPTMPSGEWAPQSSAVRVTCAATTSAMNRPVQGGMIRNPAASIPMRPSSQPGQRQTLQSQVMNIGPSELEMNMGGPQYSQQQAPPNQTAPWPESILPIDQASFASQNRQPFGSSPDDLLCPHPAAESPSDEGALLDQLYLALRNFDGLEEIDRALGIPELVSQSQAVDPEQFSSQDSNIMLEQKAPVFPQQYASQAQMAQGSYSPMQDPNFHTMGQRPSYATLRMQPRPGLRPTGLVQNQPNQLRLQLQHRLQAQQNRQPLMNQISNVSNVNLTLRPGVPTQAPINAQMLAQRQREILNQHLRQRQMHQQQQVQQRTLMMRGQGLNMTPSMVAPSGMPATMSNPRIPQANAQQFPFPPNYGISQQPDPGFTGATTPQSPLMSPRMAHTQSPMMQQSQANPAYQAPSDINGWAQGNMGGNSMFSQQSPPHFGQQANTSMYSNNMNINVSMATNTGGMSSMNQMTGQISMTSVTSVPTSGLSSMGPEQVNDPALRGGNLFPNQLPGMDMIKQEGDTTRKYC
Chain of Peroxisome proliferator-activated receptor gamma/Nuclear receptor coactivator 3 (P37231 whole entry): as the sequence (P37231 whole entry) above
Chain of Peroxisome proliferator-activated receptor gamma/Nuclear receptor coactivator 3 (Q9Y6Q9 whole entry, further chain): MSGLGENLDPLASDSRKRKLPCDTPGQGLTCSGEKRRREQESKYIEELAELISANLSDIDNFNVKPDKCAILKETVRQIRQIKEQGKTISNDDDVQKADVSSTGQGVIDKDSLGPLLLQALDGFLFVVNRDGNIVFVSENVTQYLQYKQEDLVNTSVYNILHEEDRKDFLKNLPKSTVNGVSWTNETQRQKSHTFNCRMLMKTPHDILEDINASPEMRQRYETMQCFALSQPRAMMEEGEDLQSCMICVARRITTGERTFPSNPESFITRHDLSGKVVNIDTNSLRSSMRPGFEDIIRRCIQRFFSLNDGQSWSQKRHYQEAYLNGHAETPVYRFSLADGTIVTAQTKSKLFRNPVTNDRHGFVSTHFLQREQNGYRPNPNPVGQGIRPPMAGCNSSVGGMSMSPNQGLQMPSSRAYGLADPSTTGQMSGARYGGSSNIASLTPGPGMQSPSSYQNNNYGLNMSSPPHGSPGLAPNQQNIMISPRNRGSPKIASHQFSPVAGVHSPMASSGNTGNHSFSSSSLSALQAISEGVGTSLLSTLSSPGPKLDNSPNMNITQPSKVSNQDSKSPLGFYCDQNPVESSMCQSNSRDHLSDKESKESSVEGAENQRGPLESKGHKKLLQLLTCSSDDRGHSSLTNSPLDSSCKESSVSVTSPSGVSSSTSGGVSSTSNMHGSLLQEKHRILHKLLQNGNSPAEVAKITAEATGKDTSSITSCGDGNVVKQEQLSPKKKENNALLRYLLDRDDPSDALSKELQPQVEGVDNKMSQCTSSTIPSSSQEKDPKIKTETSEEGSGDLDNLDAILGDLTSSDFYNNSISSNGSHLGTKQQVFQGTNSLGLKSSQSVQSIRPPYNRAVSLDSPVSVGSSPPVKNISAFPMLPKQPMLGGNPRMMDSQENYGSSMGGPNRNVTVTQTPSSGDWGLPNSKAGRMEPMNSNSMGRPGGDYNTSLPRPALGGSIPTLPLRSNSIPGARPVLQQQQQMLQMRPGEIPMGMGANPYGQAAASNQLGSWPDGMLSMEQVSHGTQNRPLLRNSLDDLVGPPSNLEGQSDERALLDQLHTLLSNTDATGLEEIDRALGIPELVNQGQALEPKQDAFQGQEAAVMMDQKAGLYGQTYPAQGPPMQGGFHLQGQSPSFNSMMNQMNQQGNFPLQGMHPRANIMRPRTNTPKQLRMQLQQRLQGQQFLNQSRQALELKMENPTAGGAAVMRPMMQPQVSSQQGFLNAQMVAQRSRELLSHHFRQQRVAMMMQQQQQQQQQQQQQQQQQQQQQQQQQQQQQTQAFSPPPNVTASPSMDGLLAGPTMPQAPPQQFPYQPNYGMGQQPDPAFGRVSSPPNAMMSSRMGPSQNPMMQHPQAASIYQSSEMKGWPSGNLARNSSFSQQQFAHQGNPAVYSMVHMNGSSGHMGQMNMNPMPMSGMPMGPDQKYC
Chain of Luciferin 4-monooxygenase (P08659 whole entry): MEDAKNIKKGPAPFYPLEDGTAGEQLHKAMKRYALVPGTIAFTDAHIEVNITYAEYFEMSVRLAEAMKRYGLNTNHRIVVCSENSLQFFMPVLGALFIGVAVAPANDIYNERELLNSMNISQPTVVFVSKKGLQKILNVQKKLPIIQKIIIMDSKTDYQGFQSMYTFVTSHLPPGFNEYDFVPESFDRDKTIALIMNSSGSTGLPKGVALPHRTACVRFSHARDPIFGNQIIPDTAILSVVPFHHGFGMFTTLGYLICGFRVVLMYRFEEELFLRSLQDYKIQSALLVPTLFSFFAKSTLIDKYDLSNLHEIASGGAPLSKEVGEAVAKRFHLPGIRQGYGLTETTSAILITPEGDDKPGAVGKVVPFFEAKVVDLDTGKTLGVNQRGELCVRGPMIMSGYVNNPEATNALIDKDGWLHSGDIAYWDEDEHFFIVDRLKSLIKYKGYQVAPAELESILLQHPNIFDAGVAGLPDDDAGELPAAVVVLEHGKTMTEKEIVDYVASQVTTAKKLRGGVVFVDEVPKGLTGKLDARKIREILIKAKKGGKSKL

For the molecule `CS(=O)(=O)N(CC(=O)NCc1ccncc1)Cc1ccc(Cl)cc1`, the EC50 in [1], in [2] and in assay [3] was > 79.4 µM (not active) each time.

As to `CC(=O)NC1=NC(=O)/C(=C/c2cc(C)n(-c3ccc(NC(C)=O)cc3)c2C)S1`, the EC50 in assay [1], in assay [2] and in [3] was > 79.4 µM (not active) each time.

On to `CCCCCC/C=C/c1ccc(OC)c([C@H]2[C@H]3C=CC[C@@H](C)[C@@H]3C(=O)N2Cc2ccccc2)c1`, for which, in [4], the IC50 (commonly the concentration at which inhibition is half-maximal) is > 80 µM (inactive).

Consider `CC(NC(=O)Nc1nnc(C(F)(F)F)s1)(C(F)(F)F)C(F)(F)F`, for which the 50% effective concentration (EC50) (in general, the midpoint of the concentration-response curve) in assay [5] is 3.54 µM (active); in [7], > 150 µM (not active); in assay [8] it was 8.76 µM (active); in assay [10], 14.4 µM (active); in assay [11] it was 7.84 µM (active). For the same molecule, the IC50 was > 35 µM (not active) in [6], > 35 µM (not active) in [9] and > 50 µM (inactive) in assay [12].

For `O=C(CN1C(=O)c2ccccc2S1(=O)=O)c1ccccc1`, the EC50 in assay [13] is given as > 100 µM (not active); in [14] it was > 50 µM (not active). The AC50 (usually the concentration at which the activity in the assay is half-maximal) in assay [15] is 1.36 µM (active).

`O=C(Nc1ccc(NC(=O)c2ccco2)nc1)c1ccccn1`: the EC50 in assay [13] is 9.44 µM (active); in [14], > 50 µM (not active).

`Cc1n[nH]c2c1C(c1ccc(-c3ccc(Cl)cc3)o1)C(C#N)=C(N)O2` (stereo unspecified): the EC50 is > 79.4 µM (not active) in assay [1]; > 79.4 µM (not active) in [2]; > 79.4 µM (not active) in [3]; 10.6 µM (active) in [16]; 9.79 µM (active) in assay [17]; 28.6 µM (active) in [21]. The AC50 in assay [18] is 6.86 µM (active); in assay [20], 41.8 µM (active). Further, the IC50 in [19] is 39.7 µM (active).

As for `O=C(C1CCC1)N1CCN(S(=O)(=O)c2ccc([N+](=O)[O-])cc2)CC1`, the IC50 in assay [4] is > 80 µM (inactive).

Regarding `COc1ccc(/C=N\NC(=O)c2sccc2C)cc1Cn1nc(C)cc1C`, the IC50 in assay [4] was > 80 µM (inactive).
